Assay results: US10787423B2, “Piperazine and piperidine derivatives, their synthesis and use thereof in inhibiting VDAC oligomerization, apoptosis and mitochondria dysfunction” (THE NATIONAL INSTITUTE FOR BIOTECHNOLOGY IN THE NEGEV LTD., priority 2015, dated 2020)

Columns and labels:
HeLa cells = assay: Selenite-induced cell death in HeLa cells, PI staining and flow cytometry; type: cell-based; details: 22 h with selenite 8 μM and increasing concentrations
Experimental: Cells, e.g. HeLa cells (2×10^5), untreated or treated with apoptosis-inducing reagents, were analyzed for apoptotic cell death using PI, annexin V-FITC and flow cytometer analysis. Cells were collected (1500×g for 10 min), washed, and resuspended in 200 μl binding buffer (10 mM HEPES/NaOH, pH 7.4, 140 mM NaCl, and 2.5 mM CaCl2). Annexin V-FITC was added according to the recommended Protocol (Enzo Life Sciences, Switzerland), and the cells were incubated in the dark for 15 min. Cells were then washed with binding buffer and resuspended in 200 μl binding buffer, to which PI was added immediately before flow cytometry analysis. At least 10,000 events were collected, recorded on a dot plot, and analyzed by the FACSCalibur™ flow cytometer software (BD Biosciences, Franklin Lakes, N.J.).
HeLa cells were incubated with varying concentrations (2-20 μM) of racemic compound of Formula 1 (VBIT-4) and of the enantiomers of compound of Formula 1 (VBIT-4-1 and VBIT-4-2) for 1 hour, and then with or without selenite (25 μM, 3 hours). Cells were harvested and assayed for apoptotic cell death, using PI staining and FACS analysis. The results shown in the FIG. 14b correspond to means±SD (n=3).
Cells (2.5 mg/ml) were washed with and resuspended in PBS, pH 8.3 and incubated with membrane-permeable cross-linker EGS (250 μM) at 30° C. for 15 min and then subjected to SDS-PAGE and immunoblotting using anti-VDAC1 antibodies. Several anti-VDAC1 antibody-labeled protein bands were obtained upon exposure to the apoptosis stimuli that are correspond to VDAC1 dimers, trimers, tetramers and multimers. Cell death as induced by selenite and inhibited by the compound of Formula 3 (VBIT-12) or compound of Formula 11 (DIV00781) is shown (FIG. 21B), with closed circles corresponding to the compound of Formula 3 and open circles corresponding to the compound of Formula 11. Cell death was analyzed using propidium iodide (PI) staining and flow cytometry.

[1] = molecular target: T1, rVDAC1-GFP2 / rVDAC1-Rluc in T-REx-293 cells (Rattus norvegicus, UniProt Q9Z2L0); assay: BRET2 assay of VDAC1 oligomerization induced by apoptosis inducers (Method A); type: cell-based; details: test compound 10 μM, 1 h pre-incubation; for BRET2, % of inhibition, As2O3: As2O3 60 μM (3 h); for BRET2, % of inhibition, STS: STS 1 μM (3 h); for BRET2, % of inhibition, Selenite: selenite 30 μM (3 h)
T1 construct: The rVDAC1 gene was cloned into BamHI and HindIII sites of the BRET2 plasmids (N2 variants); expressed in transfected cells; host or cells: T-REx-293 cells stably expressing hVDAC1-shRNA (T-REx-pS10)
From the text: BRET2 screening may be carried out as described in the art ([…] et al., (2010) Oligomerization of the mitochondrial protein voltage-dependent anion channel is coupled to the induction of apoptosis. Mol Cell Biol 30, 5698-5709). Plasmids encoding the fusion proteins rat(r)VDAC1-GFP2 and rVDAC1-luc were constructed using the BRET2 plasmids (Perkin Elmer, Waltham, Mass.). The rVDAC1 gene was cloned into BamHI and HindIII sites of the BRET2 plasmids (N2 variants) and amplified using the forward primer [NT] and the reverse primer [NT]. […] The cells were transfected using calcium phosphate method. Transfections were carried out with 0.2 μg of a plasmid coding for rVDAC1-Rluc and with 0.8 μg of a plasmid coding for rVDAC1-GFP2. As a negative control, cells were transfected with plasmids encoding for rVDAC1-Rluc (0.2 μg DNA) and GFP2 (0.8 μg). In another control (control cells), cells were also transfected with a plasmid encoding for rVDAC1-luc (0.2 μg) and plasmid pcDNA4/TO (0.8 μg). The BRET2 signal represents the ratio of the GFP2 fluorescence, measured at its emission wavelength (510 nm), over the light intensity (luminescence) emitted at 395 nm. All measurements were performed using the Infinite 200 ELISA reader (Tecan). BRET2 signals were defined as GFP2/Rluc intensity ratio and calculated as follows: DNA encoding fusion proteins rVDAC1-Rluc (in which RLuc was connected to rVDAC1 at the C terminal position through a linker (GGGS)) and rVDAC1-GFP2 (in which the GFP2 was fused to the rVDAC1 C terminus) was cloned into BRET2 vectors. rVDAC1-GFP2 and rVDAC1-Rluc were expressed in T-REx-293 cells stably expressing shRNA-hVDAC1 and a low level of endogenous hVDAC1 (referred to as T-REx-pS10 cells) hVDAC1-shRNA, being specific to human VDAC1, allowed the expression of rVDAC1 and decreased the participation of endogenous hVDAC1 in oligomerization, thereby enhancing the BRET2 signal. rVDAC1-GFP2 and rVDAC1-Rluc expression levels were correlated with the amount of plasmids used. […] Following incubation, cells were harvested using trypsin, washed twice with PBS by centrifugation at 1000×g, 5 min, resuspended in 200 μl of PBS and divided between two wells of a 96-well clear-bottom plate (Grenier). […] The screening was conducted using BRET2 assay as described above. […] After treatment, the medium was removed and assayed for BRET2 signals as described above. Liquid handling was done with the Tecan (Männedorf, Switzerland) Freedom 150 Robotic & MCA Liquid Handling System, while luciferase luminescence and fluorescence readings were obtained a robot-integrated Tecan Infinite M1000 reader. Method A was used for screening of VDAC1 oligomerization inhibitors. […] Table 2 provides a summary of BRET2-based screen results of the anti-VDAC1 oligomerization activity of compounds from the NCI library. Results are presented as percent inhibition of the BRET2 signal induced by the indicated pro-apoptotic agent.

T1 sequence (Q9Z2L0 with tags, fused parts or gaps limits assumed): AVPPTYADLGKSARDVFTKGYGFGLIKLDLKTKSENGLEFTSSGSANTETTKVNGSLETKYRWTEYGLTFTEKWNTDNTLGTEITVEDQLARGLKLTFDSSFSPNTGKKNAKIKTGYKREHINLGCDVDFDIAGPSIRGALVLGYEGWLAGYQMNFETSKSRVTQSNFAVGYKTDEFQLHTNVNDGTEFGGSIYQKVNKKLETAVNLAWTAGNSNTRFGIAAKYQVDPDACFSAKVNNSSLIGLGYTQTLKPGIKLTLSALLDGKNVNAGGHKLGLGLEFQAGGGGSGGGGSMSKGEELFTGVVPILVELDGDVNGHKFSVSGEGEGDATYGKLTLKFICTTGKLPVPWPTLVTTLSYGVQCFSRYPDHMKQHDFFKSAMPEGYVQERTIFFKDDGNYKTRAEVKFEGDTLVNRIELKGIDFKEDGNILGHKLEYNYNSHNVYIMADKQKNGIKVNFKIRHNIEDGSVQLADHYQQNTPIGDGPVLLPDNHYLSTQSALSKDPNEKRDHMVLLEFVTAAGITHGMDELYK

Row | SMILES | cell death as induced by selenite (HeLa cells) | BRET2, % of inhibition, As2O3 [1] | BRET2, % of inhibition, STS [1] | BRET2, % of inhibition, Selenite [1]
1 | O=C(O)CN1CN(c2ccccc2)C2(CCN(Cc3cccc4ccccc34)CC2)C1=O [Formula 11] | inhibited |  |  | 
2 | COc1ccc(C2OC3=C(Nc4cc(C)c(C)cc4N3)C2=O)cc1 (stereo not shown) [NSC 372275] |  | 72.5% | 28.5% | 46.5%
3 | Nc1nc(Nc2ccccc2)n[nH]1 [NSC 331208] |  | 86.4% | 0% | 28.3%
4 | O=C(Nc1ccc(Nc2ccncc2)cc1)c1ccc(Nc2ccnc3ccc([N+](=O)[O-])cc23)cc1 [NSC 146771] |  | 70.7% | 41.2% | 68.1%
5 | Cc1ccc(NC(=O)Nc2nc3ccccc3s2)cc1NC(=O)Nc1nc2ccccc2s1 [NSC 319990] |  | 96.2% | 22% | 43.2%
6 | O=C(O)c1ccc(O)c(O)c1 [NSC 16631] |  | 0% | 30.5% | 41.5%
7 | S=c1nc[nH]c2c1ncn2C1CCCC1 [NSC 19487] |  | 88.8% | 32.6% | 68.6%
8 | CCOC(=O)N1CCN(Cc2c(O)ccc3ccccc23)CC1 [NSC 12262] |  | 81.5% | 0% | 67.4%
9 | O=C(O)c1cc2ccccc2cc1Nc1ccccc1 [NSC 40275] |  | 64.8% | 16.8% | 35.2%
10 | CC#CC#Cc1cccc(=O)o1 [NSC 109292] |  | 75.4% | 0% | 0%
11 | Cc1ccc([N+](=O)[O-])cc1NC(=O)Nc1ccc(S(N)(=O)=O)cc1 [NSC 146554] |  | 100% | 0% | 71.8%
12 | O=C(O)c1ccccc1C(=O)Nc1ccccc1[N+](=O)[O-] [NSC 41066] |  | 48.8% | 0% | 0%
13 | O=C(Nc1ccc(Cl)c([N+](=O)[O-])c1)Nc1nc2ccccc2s1 [NSC 329249] |  | 82.8% | 12.1% | 22.4%
14 | Cc1ccc(-n2nnnc2-c2cccnc2)cc1 [NSC 23247] |  | 97.3% | 0% | 52.1%
15 | O=C1CN2CCC1C/C2=C\c1ccnc2c(Cl)cccc12 (stereo not shown) [NSC 132868] |  | 55.5% | 0% | 41.4%
16 | CC(C)COC(=O)NC1c2ccccc2Oc2ccccc21 [NSC 31069] |  | 74.9% | 0% | 0%
17 | O=C(O)c1cc2ccccc2c2cc(Br)ccc12 [NSC 151252] |  | 100% | 0% | 29.8%
18 | CCOc1ccc(/C=C2\CCc3ccccc3C2=O)cc1 [NSC 252172] |  | 83.1% | 44.1% | 50%
19 | Nc1ncnc2c1cnn2C1CCCCC1 [NSC 19115] |  | 64.2% | 36.4% | 62%
20 | O=C(Nc1cccc([N+](=O)[O-])c1)c1cccc(C(=O)Nc2cccc([N+](=O)[O-])c2)c1 [NSC 204232] |  | 90.3% | 0% | 32.5%
21 | NCc1c(O)ccc2ccccc12 [NSC 48422] |  | 0% | 36.8% | 38.6%
22 | O=C(Nc1ccccc1-c1ccccc1)C(=O)Nc1ccccc1-c1ccccc1 [NSC 338042] |  | 44.7% | 0% | 80.2%
23 | COc1c(NC(C)=O)c2ccccc2c2ccccc12 [NSC 31698] |  | 51.3% | 0% | 2.1%
